Data taken from patent US20200315984A1 (priority 2013, published 2020).
Read-outs that look alike come from different tables or passages of the source.

Key:
[1] = cited from earlier work
[2] = Extrapolated absorption data for dual-film dosage; assay type: in vivo; details: human, plasma, dual-layered film; for AUC: local pH 3.5 and 5.5, read-out: Naloxone AUC; for Cmax: local pH 3.5 and 5.5, read-out: Naloxone Cmax
Procedure: A dual-film dosage is prepared, with the first film layer having a local pH of about 3.5 and containing an antagonist therein, and the second film layer having a local pH of about 5.5 and containing an agonist therein. In this dual-film dosage, the first film layer (having the antagonist) is a fast-dissolving film, while the second film layer (having the agonist) is a moderate dissolving film.

[3] = other: sublingual or buccal film
[4] = other: sublingual/buccal film dissolved in the oral cavity

C=CCN1CC[C@]23c4c5ccc(O)c4O[C@H]2C(=O)CC[C@@]3(O)[C@H]1C5 [naloxone]
pKa [1]: about 7.94
AUC [2, 3]: 0.0905 to 0.724 ng·h/mL
Cmax [2, 3]: 0.0325 to 0.26 ng/mL
AUC [2, 4]: 0.0906 to 0.724 ng·h/mL
Cmax [2, 4]: 0.0325 to 0.26 ng/mL
